One experiment deals with LFA-1. The experiment can be described thus: TPA-induced homotypic adhesion (aggregation) of peripheral blood leukocytes. Format: cell-based, human. Conditions: ~100 micromoles per liter Ajoene. The procedure: Normal human peripheral blood leukocytes (PBLS) were cultured for 5 days without stimulation in complete RPMI medium (Sigma Chemical Co., St. Louis, Mo.), washed, and resuspended at 9×10^6 cells/ml in the same medium. Fifty microliters of the cells were added in duplicate to wells containing 100 microliters of an Ajoene solution (50 micrograms/ml),anti-LFA-1 antibody (H52) solution (20 micrograms/ml), or vehicle controls. The plate was then incubated for 30 min at 37° C. before adding to each well 50 microliters of a solution of 12-O-tetradecanoyl 4-β-phorbol 13-acetate (TPA) to the final concentration of 125 ng/ml). The plate was incubated for 45 min at 37° C., followed by additional 10-min incubation at room temperature on a shaking platform. The cells were allowed to settle, and adhesion was quantitated by counting the number of free cells in random high-power fields in the duplicate wells. Following incubation with TPA, 75 to 90% of cells are typically found in large aggregates as a result of LFA-1 upregulation. TPA induced a 90% aggregation in PBLs that were preincubated with vehicle controls. […] This example provides conclusive evidence that, in addition to GP IIb/IIIa and VIA-4, Ajoene modulates the integrin LFA-1. […]

Experiment [1] deals with VLA-4 (Jurkat cells, VCAM-1). Briefly: VLA-4-dependent adhesion of Jurkat cells to VCAM-1. Format: cell-based. Conditions: Homo sapiens, 1 h, 37° C. The procedure: (§1) Microtiter plates were coated with ligands of the integrin VLA-4, i.e., recombinant human VCAM-1 (500 nanograms per well) or the fragment of connective segment of human fibronectin (CS-1), covalently attached to ovalbumin (5 micrograms per well) by overnight incubation (4° C.) with solutions of the proteins in phosphate-buffered saline (PBS). The plates were blocked with 1% bovine serum albumin (BSA) in Hanks' buffered salt solution (HBSS-BSA). The cells (Jurkat or human melanoma MV3) were labeled with the fluorescent dye 5-chloromethylfluorescein diacetate (CMFDA) and introduced into the wells of the plates (10^5 cells per well) together with varying amounts of Ajoene. After incubation at 37° C. for 1 h, the unbound cells were removed by aspiration and the wells washed four times with HBSS-BSA. Thereafter, the bound cells were lysed with 0.5% Triton X-100, and the fluorescence was measured using a Cytofluor 2300 plate reader. The number of adherent cells was calculated from a standard dilution curve of Triton X-100 lysates of the CMFDA-labeled cells.

The subject of experiment [2] is VLA-4 (MV3 cells, VCAM-1). Briefly: VLA-4-dependent adhesion of human melanoma MV3 cells to VCAM-1. Format: cell-based. Conditions: MV-3, 1 h, 37° C. The procedure:
as §1

For a further experiment, the system named is cell-free HIV. The experiment can be described thus: Cell-free HIV infection of syncytiotrophoblasts. Format: cell-based, HIV-1. Conditions: 200 micromoles per liter and lower concentrations tested. The procedure:
In order to assess the ability of Ajoene to inhibit lymphocyte-mediated HIV infection of syncytiotrophoblasts, HIV-1LBi -infected MOLT-4 cells were added to adherent cultures of uninfected syncytiotrophoblasts in the presence and absence of Ajoene. Various additional control conditions were also established. First, some wells received filtered (0.45 micrometer) supernatant of cell-free HIV from infected cell cultures. Yet other negative controls included syncytiotrophoblasts cultured alone and syncytiotrophoblasts cultured with uninfected MOLT-4 cells. After 24 hours, the cocultures were washed to removed unbound lymphocytes, fixed, permeabilized, stained for viral core antigens (p24 and p55), and viewed under a fluorescence microscope.

The subject of another experiment is melanoma B16 cells. The experiment can be described thus: Melanoma cell implantation (subcutaneous B16). Format: in vivo, C57BL/6 mice. To be noted: Mus musculus, sc; B16 cells pretreated 15 min; tumor volume at 14 and 21 days. The procedure: Male C57BL/6 mice were inoculated subcutaneously with 10^6 B16 cells (pretreated for 15 min with Ajoene) in their pretreatment medium, and the volume of the tumors formed was measured 14 and 21 days after the injection.

For experiment [3], the system named is neutrophils (β2 integrins). Briefly: N-formyl-L-methionyl-L-leucyl-L-phenylalanine-stimulated neutrophil aggregation. Format: cell-based. The procedure: Neutrophil aggregation was assayed as described above for the platelet system, with some modifications. Freshly isolated neutrophils were finally suspended in a buffer (120 mM NaCl, 4 mM KCl, 10 mM dextrose, 2 mM CaCl2·2H2 O, 2 mM MgCl2·6H2 O, and 20 mM Tris; pH 7.4) to the final density of 10^7 cells per ml. Aliquots of neutrophil suspension (0.25 ml in siliconized glass cuvettes; 10^7 cells per ml) were stirred in the cell of the aggregometer with 5 micrograms per ml cytochalasin B (1000 rpm, 37° C.) for 1 min. […] Maximum LT (100%) was calibrated with the same buffer.
The requirement of integrins for the formation of cell-to-cell contacts in each of these systems has long been established. It is known that in platelets the relevant integrin is GP IIb/IIIa (β3). Neutrophil aggregation is underlain by interactions of β2 integrins (e.g., LFA-1 and/or Mac-1) with their surface counterstructures, while cohesion of T-cells is supported by both β2 integrins and fibronectin-binding β1 integrins (e.g., VLA-4 and VLA-5).

Structures are written as SMILES.

With `C=CCSSC=CC[S+]([O-])CC=C` (stereo not shown) [Ajoene, 4,5,9-trithiadodeca-1,6,11-triene-9-oxide], the “inhibition of TPA-induced homotypic adhesion of PBLs” value with LFA-1 was “completely inhibited”. The 50% inhibitory concentration (IC50) in experiment [1] worked out at 250 µM; in experiment [2], 125 µM; in the experiment with melanoma B16 cells it was 2.5 µM. For the same molecule, the “inhibition of cell-free HIV infection of syncytiotrophoblasts” value in the experiment with cell-free HIV is “totally inhibited”. In experiment [3] (Neutrophil, stimulus N-formyl-L-methionyl-L-leucyl-L-phenylalanine 10^-7 M), this molecule gave an IC100 of approximately 10 µM. The “deaggregation of aggregated neutrophils” value in experiment [3] (added to aggregated neutrophils) was “caused rapid deaggregation”.

As a reminder, the IC50 is the concentration that inhibits the measured activity by half.

(Values after patent US6177475A, “Methods of using integrin modulators for treatment of inflammation” (priority 1997, dated 2001).)
